What was measured:
Experiment in all cases: relative viability (nuclei count vs DMSO), 5 days (fraction); higher = more cells survive
[1] = compound: CN(c1ncccc1CNc1nc(Nc2ccc3c(c2)CC(=O)N3)ncc1C(F)(F)F)S(C)(=O)=O + Cc1cc(Nc2cc(N3CCN(C)CC3)nc(Sc3ccc(NC(=O)C4CC4)cc3)n2)n[nH]1 [Tozasertib] (partner 0.1 µM)
Outline: (§1)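 Lung cancer cell lines, seeded in 1536-well plates, were treated the following day by pin tool with a single drug or with five library-drug doses (not always all listed) in √10 steps on top of a fixed anchor-drug dose. Cells were fixed and nuclei stained in one step after 5 days, and nuclei were counted. Relative viability is the nuclei count for treated wells divided by that for vehicle wells, reported as medians of duplicate plates.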

[2] = compound: CN(c1ncccc1CNc1nc(Nc2ccc3c(c2)CC(=O)N3)ncc1C(F)(F)F)S(C)(=O)=O + COc1cc2c(Oc3ccc(NC(=O)C4(C(=O)Nc5ccc(F)cc5)CC4)cc3F)ccnc2cc1OCCCN1CCOCC1 [Foretinib] (partner 0.25 µM)
Outline: as §1

[3] = compound: CN(c1ncccc1CNc1nc(Nc2ccc3c(c2)CC(=O)N3)ncc1C(F)(F)F)S(C)(=O)=O + NC(=O)Nc1cc(-c2cccc(F)c2)sc1C(=O)N[C@H]1CCCNC1 [AZD7762] (partner 0.2 µM)
Outline: as §1

[4] = compound: CN(c1ncccc1CNc1nc(Nc2ccc3c(c2)CC(=O)N3)ncc1C(F)(F)F)S(C)(=O)=O + CCNC(=O)c1noc(-c2cc(C(C)C)c(O)cc2O)c1-c1ccc(CN2CCOCC2)cc1 [Luminespib] (partner 0.01 µM)
Outline: as §1

Cell Line	relative viability ([1]; first compound 0.01 µM)	relative viability ([1]; first compound 0.03162 µM)	relative viability ([1]; first compound 0.1 µM)	relative viability ([1]; first compound 0.3162 µM)	relative viability ([1]; first compound 1 µM)	relative viability ([2]; first compound 0.01 µM)	relative viability ([2]; first compound 0.03162 µM)	relative viability ([2]; first compound 0.1 µM)	relative viability ([2]; first compound 0.3162 µM)	relative viability ([2]; first compound 1 µM)	relative viability ([3]; first compound 0.01 µM)	relative viability ([3]; first compound 0.03162 µM)	relative viability ([3]; first compound 0.1 µM)	relative viability ([3]; first compound 0.3162 µM)	relative viability ([3]; first compound 1 µM)	relative viability ([4]; first compound 0.01 µM)	relative viability ([4]; first compound 0.03162 µM)	relative viability ([4]; first compound 0.1 µM)	relative viability ([4]; first compound 0.3162 µM)	relative viability ([4]; first compound 1 µM)
NCI-H838	0.27	0.336	0.261	0.272	0.19	1.01	1.06	1.07	0.882	0.718	0.994	0.955	0.964	0.861	0.933	0.409	0.255	0.242	0.31	0.263
NCI-H1355	0.538	0.513	0.557	0.496	0.501	0.937	1.01	1	0.884	0.907	0.866	0.864	0.944	0.732	0.697	0.713	0.723	0.645	0.624	0.65
NCI-H1395	0.724	0.806	0.784	0.856	0.782	0.985	1.12	0.952	0.849	0.954	0.41	0.368	0.421	0.398	0.424	0.766	0.703	0.682	0.558	0.658
NCI-H1437	0.424	0.483	0.397	0.411	0.355	1.31	1.2	1.21	1.11	0.988	1.12	1.17	1.15	1.08	1.07	1.14	1.16	1.12	0.993	0.687
NCI-H1651	0.67	0.719	0.671	0.681	0.515	0.817	0.88	0.906	0.765	0.784	0.507	0.469	0.488	0.534	0.484	1.03	0.957	0.708	0.688	0.667
NCI-H1666	0.606	0.615	0.514	0.725	0.362	0.977	0.874	0.851	0.976	0.843	0.978	0.834	0.838	0.932	0.847	0.936	0.939	0.923	0.786	0.612
NCI-H1734	0.239	0.273	0.27	0.269	0.258	0.93	0.911	0.796	0.828	0.712	0.55	0.659	0.667	0.782	0.742	0.198	0.178	0.184	0.227	0.18
NCI-H1755	0.519	0.533	0.593	0.472	0.61	0.88	0.983	0.9	0.832	0.833	0.585	0.398	0.488	0.502	0.437	0.531	0.41	0.479	0.389	0.419

From the supplement of paper PMC10307832
